This is an account of results in ChEMBL document CHEMBL5346934 (J Med Chem, 2023).

Broadly, the EC50 is the concentration giving half of the maximal effect. One may read the EC90 as the concentration at which the effect reaches the 90% level. What is called IC50 is the concentration that inhibits the measured activity by half. Broadly, the CC50 is the concentration at which the toxic effect on the cells reaches its halfway point.

In brackets after ≈: the same amount, converted by molar mass.

Data set [1] deals with Cowpox virus. Put plainly: Antiviral activity against Cowpox virus infected in Vero cells measured after 4 days by colorimetric assay. It counts as functional, organism-based. The following applies: 96 h.
The subject of data set [2] is Vaccinia virus. In words: Antiviral activity against Vaccinia virus infected in African green monkey BSC-1 cells incubated for 24 hrs by microscopic analysis. It counts as functional. The settings on record: Orthopoxvirus vaccinia.
Data set [3] deals with Vaccinia virus. Put plainly: Antiviral activity against Vaccinia virus infected in African green monkey Vero cells incubated for 24 hrs. The settings on record: Orthopoxvirus vaccinia. It counts as functional, organism-based.
Data set [4] concerns Vaccinia virus. Put plainly: Antiviral activity against Vaccinia virus infected in African green monkey Vero cells assessed as reduction virus induced cytopathic effect incubated for 24 hrs by MTT assay. It counts as functional, organism-based. The settings on record: Orthopoxvirus vaccinia.
The nature of data set [5]: Inhibition of D4 receptor (unknown origin). Set-up: species or system Homo sapiens.
Data set [6] has as its system Vaccinia virus. In words: Antiviral activity against Vaccinia virus Copenhagen infected in African green monkey Vero cells. It counts as functional, organism-based. The settings on record: Orthopoxvirus vaccinia.
The subject of data set [7] is Cowpox virus. In words: Antiviral activity against Cowpox virus Grishak infected in African green monkey Vero cells. Type of data set: functional, organism-based.
In data set [8] the test system is Vaccinia virus. In words: Antiviral activity against Vaccinia virus Copenhagen infected in human HFF cells assessed as assessed as reduction in virus-induced cytopathic effect incubated for 7 days by microscopic analysis. Type of data set: functional, organism-based. The settings on record: Orthopoxvirus vaccinia, 168 h.
Data set [9] deals with Vaccinia virus. Put plainly: Antiviral activity against Vaccinia virus Copenhagen infected in HFF cells measured after 3 days by colorimetric assay. It counts as functional, organism-based. The settings on record: Orthopoxvirus vaccinia, 72 h.
Data set [10] concerns Vaccinia virus. In words: Antiviral activity against wild type Vaccinia virus infected in African monkey Vero cells measured after 5 days by MTT assay. It counts as functional, organism-based. The following applies: Orthopoxvirus vaccinia, 120 h.
Data set [11] concerns Cowpox virus. In words: Antiviral activity against Cowpox virus Brighton infected in human HFF cells assessed as assessed as reduction in virus-induced cytopathic effect incubated for 7 days by microscopic analysis. It counts as functional, organism-based. The settings on record: 168 h. In general terms: Damage to the host cells serves as the signal in cytopathic effect assays.

The test system of data set [12] is Vaccinia virus. Put plainly: Antiviral activity against Vaccinia virus IHD-J infected in BSC40 cells assessed as reduction in plaque formation measured after 72 hrs by crystal violet staining based analysis. Type of data set: functional, organism-based. The settings on record: Orthopoxvirus vaccinia, BSC-40, 72 h.
The test system of a further data set is Human alphaherpesvirus 2. Put plainly: Antiviral activity against Herpes simplex virus 2. It counts as functional, organism-based.
Data set [13] deals with Vaccinia virus. In words: Antiviral activity against Vaccinia virus infected in human HFF cells. It counts as functional, organism-based. The following applies: Orthopoxvirus vaccinia.
The test system of the next data set is Variola virus. In words: Antiviral activity against Variola virus 7124 infected in monkey LLC-MK2 cells. Type of data set: functional, organism-based. The settings on record: Variola virus, 7124, LLC-MK2.
For data set [14], the system named is Vaccinia virus. Put plainly: Antiviral activity against Cowpox virus Brighton infected in human HFF cells assessed as reduction in viral replication measured after 3 days. Type of data set: functional, organism-based. The following applies: Orthopoxvirus vaccinia, 72 h.
Data set [15] concerns Vaccinia virus. Put plainly: Antiviral activity against Vaccinia virus Copenhagen infected in human HFF cells assessed as reduction in viral replication measured after 3 days. Type of data set: functional, organism-based. The following applies: Orthopoxvirus vaccinia, 72 h.
A short description of data set [16]: Cytotoxicity against African green monkey VERO cells assessed as inhibition of cell growth incubated for 24 hrs by MTT assay. Type of data set: toxicity, cell-based. The following applies: chlorocebus sabaeus. On the technique in general: Formazan colour is commonly taken as a measure of viable cells.
The test system of data set [17] is Vaccinia virus. Put plainly: Antiviral activity against Vaccinia virus infected in African green monkey Vero cells. The settings on record: Orthopoxvirus vaccinia. Type of data set: functional, organism-based.
The subject of the next data set is Monkeypox virus. Put plainly: Antiviral activity against Monkeypox virus V79-1-005 infected in Vero cells measured after 4 days by colorimetric assay. The following applies: V79-1-005, Vero, 96 h. Type of data set: functional, organism-based.
The subject of the next data set is Ectromelia virus. Put plainly: Antiviral activity against ectromelia virus K-1 infected in Vero cells measured after 4 days by colorimetric assay. It counts as functional, organism-based. The settings on record: K-1, Vero, 96 h.
In data set [18] the test system is Vaccinia virus. In words: Antiviral activity against Vaccinia virus infected in Vero cells measured after 4 days by colorimetric assay. The settings on record: Orthopoxvirus vaccinia, 96 h. Type of data set: functional, organism-based.
The test system of another data set is Camelpox virus. Put plainly: Antiviral activity against Camelpox virus infected in human HEL cells assessed as reduction in virus-induced cytopathic effect measured after 5 days by microscopic analysis. It counts as functional, organism-based. The following applies: 120 h.
Data set [19] deals with Cowpox virus. In words: Antiviral activity against Cowpox virus Brighton infected in Vero cells measured after 4 days by colorimetric assay. It counts as functional, organism-based. The settings on record: 96 h.
Data set [20] relates to Vaccinia virus. Put plainly: Antiviral activity against Vaccinia virus Lister infected in human HEL cells assessed as virus-induced cytopathic effect measured after 5 days by microscopic analysis. Type of data set: functional, organism-based. The following applies: Orthopoxvirus vaccinia, 120 h.

For `Nc1ncnc2c1ncn2COC(CO)CO`, in the data set on Cowpox virus [1], the midpoint of the response, the EC50, lay at 3.5 µM.

Turning to `CCCCCCCCNCCC[C@@H](C)[C@H]1CC[C@H]2[C@@H]3[C@H](OCCCN)C[C@@H]4C[C@H](OCCCN)CC[C@]4(C)[C@H]3C[C@H](OCCCN)[C@]12C`, in the data set with Vaccinia virus [2], the EC90 was found to be 9.15 µM. `CCNC(=O)OCC12CC3CC(CC(C3)C1)C2` displayed an EC50 with Vaccinia virus [3] of 14.8 µM. Turning to `CCC(C(=O)Nc1sc(C(N)=O)c(C)c1C(=O)OC)c1ccccc1` (configuration not stated), the EC50 with Vaccinia virus [4] stood at 19.7 µM; in the data set on Vaccinia virus [6] it was 18.7 µM; with Cowpox virus [7], 8.4 µM. In addition, it took 13.4 µM to reach half-maximal inhibition in data set [5] (IC50). `Oc1ccc(NCc2ccccc2OCc2ccccc2)cc1`: the EC50 with Vaccinia virus [8] amounted to 7.1 µM. In the case of `Fc1ccc(Nc2c(-c3ccccn3)nc3ccc(Cl)cn23)cc1`, the EC50 in the data set on Vaccinia virus [8] was determined as 6.5 µM. For `O=c1[nH]c(=O)n([C@H]2C[C@H](O)[C@@H](CO)S2)cc1I`, the EC50 with Vaccinia virus [9] is 0.5 µM; in the data set on Vaccinia virus [10], 0.05 µM. With `O=S(=O)(c1ccc(C2=CSC(Nc3ccc(F)cc3)N2CCCCCCO)cc1)N1CCCC1` (configuration not stated), the results for the EC50 in the data set on Cowpox virus [11] and in the data set on Vaccinia virus [8] were 4.5 µM and 4.6 µM, respectively.

For `O=C1c2ccccc2-c2onc3c2C1C(NC1CCCCC1)C=C3NCCO` (configuration not stated), the EC50 in the data set on Vaccinia virus [8] turned out to be 8.4 µM.

Regarding `CCC(=O)N1CC(=O)Nc2ccc(Br)cc2C1c1ccccc1` (configuration not stated), the EC50 in the data set with Vaccinia virus [12] was 3 µM. On to `NC(CSC1(c2ccc(Cl)cc2)c2ccccc2-c2ccccc21)C(=O)O` (configuration not stated), for which the IC50 in the data set with Human alphaherpesvirus 2 is 34.8 µM; in the data set with Vaccinia virus [13], 47.5 µM. For the compound `Cc1ccc(C2Nc3ccccc3C(=O)N2c2ccccc2)s1` (configuration not stated), the EC50 in the data set with Vaccinia virus [12] was found to be 2.2 µM. In the case of `Nc1nc(=O)n([C@@H]2C=C(CO)[C@@H](O)[C@H]2O)cc1F`, a half-maximal response in the data set with Variola virus (EC50) required 0.51 µM.

Turning to `NC(=S)N/N=C1\C(=O)Nc2ccccc21`, the values for the EC50 with Vaccinia virus [14] and in the data set on Vaccinia virus [15] were 60 µM and 14 µM, respectively. In turn, `Nc1cc(OC[C@H](CO)OCP(=O)(O)O)nc(N)n1` had an EC50 with Cowpox virus [1] of 46.2 µM. For the compound `CC1(C)[C@@H]2CC[C@@]1(C)/C(=N/Nc1nc(-c3ccc(Br)cc3)cs1)C2`, in data set [16], the CC50 at 24 h is 77.1 µM. `Cc1nn(C)c(C)c1CCOc1c(-c2ccc3c(c2)c(CN(C)C)nn3C)ccc(F)c1F`: the EC50 with Vaccinia virus [12] is 0.13 µM. `CC1(C)[C@H]2CC[C@]1(C)[C@H](OC(=O)CCCN1CCOCC1)C2` gave an IC50 in the data set on Vaccinia virus [17] of 7.95 µM.

As for `CC1(C)[C@@H]2CC[C@@]1(C)[C@H](NC(=O)CCN1CCOCC1)C2`, it took 7.47 µM to reach half-maximal inhibition in the data set with Vaccinia virus [17] (IC50). With `O=C(NNC(=O)C1C2C=CC(C3CC23)C1C(=O)O)c1ccc(C(F)(F)F)cc1` (configuration not stated), the EC50 with Monkeypox virus turned out to be 0.013 mg/L (≈ 0.033 µM); in the data set on Ectromelia virus, 0.011 mg/L (≈ 0.0279 µM); in the data set on Vaccinia virus [18], 0.001 mg/L (≈ 0.00254 µM). In turn, `CCc1ccc(S(=O)(=O)c2ccc(Cl)cc2)cc1` yielded an EC50 in the data set on Vaccinia virus [3] of 18.6 µM. As for `Nc1ccn(C[C@@H]2COP(=O)(O)CO2)c(=O)n1`, the results for the EC50 with Vaccinia virus [4] and with Cowpox virus [1] were 50.6 µM and 48.3 µM, respectively.

Regarding `Cc1cn([C@@]2(C)C[C@H](O)[C@@H](CO)S2)c(=O)[nH]c1=O`, the concentration for a half-maximal effect (EC50) came to 0.79 µM with Camelpox virus; 0.48 µM with Cowpox virus [19]; 0.48 µM in the data set on Vaccinia virus [9]; 0.41 µM in the data set on Vaccinia virus [20]; 0.8 µM in the data set with Vaccinia virus [10].
